Results reported in ChEMBL document CHEMBL4622850, “Discovery and optimization of new oxadiazole substituted thiazole RORγt inverse agonists through a bioisosteric amide replacement approach” (Bioorg Med Chem Lett, 2020).
≈ marks a conversion by molar mass, not a printed value.

Columns and labels:
[1] = Metabolic stability in human liver microsomes assessed as half life; type: ADME, Microsome
[2] = target: T1, Nuclear receptor ROR-gamma (Mus musculus, UniProt P51450); experiment: Inverse agonist activity at RORgammat in mouse whole blood assessed as reduction in IL-17a production; type: tissue-based
T1 sequence (P51450 whole entry): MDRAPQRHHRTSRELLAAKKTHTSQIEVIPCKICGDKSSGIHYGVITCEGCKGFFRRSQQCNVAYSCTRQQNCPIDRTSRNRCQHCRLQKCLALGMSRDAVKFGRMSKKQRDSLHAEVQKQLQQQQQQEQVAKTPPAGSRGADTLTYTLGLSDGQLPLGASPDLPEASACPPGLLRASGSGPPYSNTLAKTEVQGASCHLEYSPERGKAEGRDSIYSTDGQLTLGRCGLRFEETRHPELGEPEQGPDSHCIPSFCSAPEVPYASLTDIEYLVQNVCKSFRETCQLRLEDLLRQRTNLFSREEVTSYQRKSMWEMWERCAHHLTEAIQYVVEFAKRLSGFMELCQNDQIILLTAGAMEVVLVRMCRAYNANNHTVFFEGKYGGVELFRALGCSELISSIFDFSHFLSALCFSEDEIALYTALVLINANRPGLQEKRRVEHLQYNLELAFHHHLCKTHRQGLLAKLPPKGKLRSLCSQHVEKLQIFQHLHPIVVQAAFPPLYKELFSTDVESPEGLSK

[3] = Clearance in rat at 1 mg/kg, iv; type: ADME, organism-based; conditions: in vivo
CYP3A4 [4] = target: T2, CYP3A4 (Homo sapiens, UniProt P08684); experiment: Inhibition of CYP3A4 (unknown origin) at 1 uM; type: ADME
T2 sequence (P08684 whole entry): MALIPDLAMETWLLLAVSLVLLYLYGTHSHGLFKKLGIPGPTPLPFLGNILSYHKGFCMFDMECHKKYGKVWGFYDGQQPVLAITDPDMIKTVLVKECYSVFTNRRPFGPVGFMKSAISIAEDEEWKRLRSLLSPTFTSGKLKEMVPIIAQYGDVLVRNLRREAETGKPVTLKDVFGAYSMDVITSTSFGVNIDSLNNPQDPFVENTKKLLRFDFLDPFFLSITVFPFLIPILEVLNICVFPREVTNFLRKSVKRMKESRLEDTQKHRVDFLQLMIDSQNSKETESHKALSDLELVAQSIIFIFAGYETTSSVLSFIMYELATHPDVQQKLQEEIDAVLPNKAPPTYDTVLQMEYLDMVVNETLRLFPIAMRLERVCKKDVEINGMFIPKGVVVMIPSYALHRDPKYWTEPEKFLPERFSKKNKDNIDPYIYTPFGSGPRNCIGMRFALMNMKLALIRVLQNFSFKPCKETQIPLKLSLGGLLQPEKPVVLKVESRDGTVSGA

[5] = target: T3, Nuclear receptor ROR-gamma (Mus musculus) (UniProt P51450); experiment: In vivo inhibition of RORgammat in mouse assessed as reduction in IL-17a production at 30 mg/kg, po measured after 1 hr relative to control; type: functional, organism-based
T3 sequence (whole entry): T1 sequence (P51450 whole entry)

[6] = Oral bioavailability in rat at 1 mg/kg; type: ADME, organism-based; conditions: in vivo
[7] = Half life in rat at 1 mg/kg, iv; type: ADME, organism-based; conditions: in vivo
[8] = Solubility of compound by pH 2; type: physicochemical; conditions: buffer
[9] = Plasma concentration in mouse at 30 mg/kg, po measured after 1 hr; type: ADME, organism-based
[10] = Cmax in rat at 1000 mg/kg, po measured on day 1; type: ADME, organism-based; design: dose 1000 mg/kg, route oral; conditions: in vivo
CYP3A4 [11] = target: T2, CYP3A4; experiment: Inhibition of CYP3A4 (unknown origin) at 10 uM; type: ADME
[12] = AUC in rat at 5 mg/kg, po; type: ADME, organism-based; conditions: in vivo
[13] = Cmax in rat at 5 mg/kg, po; type: ADME, organism-based; design: dose 5 mg/kg, route oral; conditions: in vivo
[14] = Protein binding in mouse plasma; type: ADME, cell-free; conditions: read-out: PPB (converted)
[15] = Cmax in rat at 1000 mg/kg, po measured on day 5; type: ADME, organism-based; design: dose 1000 mg/kg, route oral; conditions: in vivo
[16] = Protein binding in rat plasma; type: ADME, cell-free; conditions: read-out: PPB (converted)
[17] = Solubility of compound by pH 7; type: physicochemical; conditions: buffer
[18] = target: T3, Nuclear receptor ROR-gamma (Mus musculus); experiment: In vivo inhibition of RORgammat in mouse assessed as reduction in IL-17a production at 3 mg/kg, po measured after 1 hr relative to control; type: functional, organism-based
[19] = AUC in rat at 1000 mg/kg, po measured on day 5; type: ADME, organism-based; conditions: in vivo
[20] = AUC in rat at 1000 mg/kg, po measured on day 1; type: ADME, organism-based; conditions: in vivo
[21] = Protein binding in human plasma; type: ADME, cell-free; conditions: read-out: PPB (converted)
[22] = Volume of distribution in rat at 1 mg/kg, iv; type: ADME, organism-based; conditions: in vivo
[23] = Plasma concentration in mouse at 3 mg/kg, po measured after 1 hr; type: ADME, organism-based
[24] = Metabolic stability in rat liver microsomes assessed as half life; type: ADME, Microsome
[25] = target: T4, Nuclear receptor subfamily 1 group I member 2 (Homo sapiens, UniProt O75469); experiment: Activation of PXR (unknown origin) at 1 uM; type: ADME
T4 sequence (O75469 whole entry): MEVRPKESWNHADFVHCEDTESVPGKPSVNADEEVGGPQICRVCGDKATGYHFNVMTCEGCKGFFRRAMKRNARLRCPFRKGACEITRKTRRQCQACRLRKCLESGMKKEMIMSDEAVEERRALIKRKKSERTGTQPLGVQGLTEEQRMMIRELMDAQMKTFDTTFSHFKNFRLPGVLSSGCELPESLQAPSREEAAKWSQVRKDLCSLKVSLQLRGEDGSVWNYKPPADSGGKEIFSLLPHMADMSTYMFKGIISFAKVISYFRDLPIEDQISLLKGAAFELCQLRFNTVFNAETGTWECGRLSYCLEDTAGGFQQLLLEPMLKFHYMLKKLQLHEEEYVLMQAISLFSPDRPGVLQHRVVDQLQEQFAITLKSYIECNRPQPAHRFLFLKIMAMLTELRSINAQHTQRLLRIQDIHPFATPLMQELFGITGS

Cytochrome P450 2C19 = Cytochrome P450 2C19 (Homo sapiens, UniProt P33261); experiment: Inhibition of CYP2C19 (unknown origin); type: ADME
Cytochrome P450 2C19, sequence (P33261 whole entry): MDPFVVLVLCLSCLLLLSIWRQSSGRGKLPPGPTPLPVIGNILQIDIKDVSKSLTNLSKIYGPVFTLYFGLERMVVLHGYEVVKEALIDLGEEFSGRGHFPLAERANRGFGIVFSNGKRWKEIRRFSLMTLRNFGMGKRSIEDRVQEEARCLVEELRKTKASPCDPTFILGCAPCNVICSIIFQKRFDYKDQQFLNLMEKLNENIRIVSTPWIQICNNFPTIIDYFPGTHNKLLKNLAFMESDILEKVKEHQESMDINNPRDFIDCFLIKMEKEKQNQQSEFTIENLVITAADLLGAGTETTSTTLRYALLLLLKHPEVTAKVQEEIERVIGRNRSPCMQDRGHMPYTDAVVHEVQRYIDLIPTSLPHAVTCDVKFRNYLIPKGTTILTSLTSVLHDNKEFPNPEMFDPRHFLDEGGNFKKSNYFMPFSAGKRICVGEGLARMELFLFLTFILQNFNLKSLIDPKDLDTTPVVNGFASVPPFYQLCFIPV

[26] = target: T3, Nuclear receptor ROR-gamma (Mus musculus); experiment: In vivo inhibition of RORgammat in mouse assessed as reduction in IL-17a production at 30 mg/kg, po measured after 0.5 hrs relative to control; type: functional, organism-based
[27] = target: T3, Nuclear receptor ROR-gamma (Mus musculus); experiment: In vivo inhibition of RORgammat in mouse assessed as reduction in IL-17a production at 30 mg/kg, po measured after 4 hrs relative to control; type: functional, organism-based
[28] = Plasma concentration in mouse at 30 mg/kg, po measured after 2 hrs; type: ADME, organism-based
[29] = Plasma concentration in mouse at 30 mg/kg, po measured after 4 hrs; type: ADME, organism-based
[30] = Plasma concentration in mouse at 30 mg/kg, po measured after 0.5 hrs; type: ADME, organism-based
[31] = target: T3, Nuclear receptor ROR-gamma (Mus musculus); experiment: In vivo inhibition of RORgammat in mouse assessed as reduction in IL-17a production at 30 mg/kg, po measured after 2 hrs relative to control; type: functional, organism-based
[32] = AUC in rat at 300 mg/kg, po measured on day 5; type: ADME, organism-based; conditions: in vivo
[33] = target: T4, Nuclear receptor subfamily 1 group I member 2; experiment: Activation of PXR (unknown origin) at 5 uM; type: ADME
[34] = target: T3, Nuclear receptor ROR-gamma (Mus musculus); experiment: In vivo inhibition of RORgammat in mouse assessed as reduction in IL-17a production at 30 mg/kg, po measured after 7 hrs relative to control; type: functional, organism-based
Cytochrome P450 2C9 = Cytochrome P450 2C9 (Homo sapiens, UniProt P11712); experiment: Inhibition of CYP2C9 (unknown origin); type: ADME
Cytochrome P450 2C9, sequence (P11712 whole entry): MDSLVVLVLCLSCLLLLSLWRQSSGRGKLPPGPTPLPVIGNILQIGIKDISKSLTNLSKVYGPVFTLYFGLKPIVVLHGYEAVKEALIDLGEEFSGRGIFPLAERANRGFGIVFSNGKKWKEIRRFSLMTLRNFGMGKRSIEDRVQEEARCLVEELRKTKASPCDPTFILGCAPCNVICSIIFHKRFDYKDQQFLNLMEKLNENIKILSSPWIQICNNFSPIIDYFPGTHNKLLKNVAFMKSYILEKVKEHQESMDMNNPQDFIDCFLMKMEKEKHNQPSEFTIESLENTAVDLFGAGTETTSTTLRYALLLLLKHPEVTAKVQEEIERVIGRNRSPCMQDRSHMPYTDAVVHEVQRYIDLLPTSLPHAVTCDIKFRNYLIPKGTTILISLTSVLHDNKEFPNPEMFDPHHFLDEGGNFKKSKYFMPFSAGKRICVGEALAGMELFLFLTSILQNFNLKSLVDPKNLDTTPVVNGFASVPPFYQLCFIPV

[35] = Plasma concentration in mouse at 30 mg/kg, po measured after 24 hrs; type: ADME, organism-based
[36] = Plasma concentration in mouse at 30 mg/kg, po measured after 7 hrs; type: ADME, organism-based
Cytochrome P450 2C8 = target: T5, Cytochrome P450 2C8 (Homo sapiens, UniProt P10632); experiment: Inhibition of CYP2C8 (unknown origin); type: ADME
T5 sequence (P10632 whole entry): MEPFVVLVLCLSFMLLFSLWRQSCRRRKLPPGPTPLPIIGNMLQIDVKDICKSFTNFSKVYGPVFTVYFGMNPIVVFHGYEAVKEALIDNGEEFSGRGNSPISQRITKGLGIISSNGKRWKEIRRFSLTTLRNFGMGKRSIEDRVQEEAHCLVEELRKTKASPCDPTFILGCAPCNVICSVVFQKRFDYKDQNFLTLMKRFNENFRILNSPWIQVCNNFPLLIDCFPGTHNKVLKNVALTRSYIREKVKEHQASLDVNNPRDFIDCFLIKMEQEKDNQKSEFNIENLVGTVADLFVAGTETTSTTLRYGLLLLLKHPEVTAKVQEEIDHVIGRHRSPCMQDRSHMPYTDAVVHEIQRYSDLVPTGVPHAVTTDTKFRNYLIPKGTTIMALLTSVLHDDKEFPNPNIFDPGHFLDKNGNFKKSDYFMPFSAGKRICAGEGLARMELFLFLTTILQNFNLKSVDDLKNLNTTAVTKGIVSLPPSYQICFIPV

[37] = Cmax in rat at 300 mg/kg, po measured on day 1; type: ADME, organism-based; design: dose 300 mg/kg, route oral; conditions: in vivo
[38] = AUC in rat at 300 mg/kg, po measured on day 1; type: ADME, organism-based; conditions: in vivo
[39] = Cmax in rat at 300 mg/kg, po measured on day 5; type: ADME, organism-based; design: dose 300 mg/kg, route oral; conditions: in vivo
[40] = target: T3, Nuclear receptor ROR-gamma (Mus musculus); experiment: In vivo inhibition of RORgammat in mouse assessed as reduction in IL-17a production at 30 mg/kg, po measured after 24 hrs relative to control; type: functional, organism-based

SMILES: C[C@H](NS(=O)(=O)c1ccc(-c2sc(-c3nnc(C(C)(C)O)o3)nc2C(=O)N2CCC(F)(F)CC2)c(Cl)c1Cl)C(F)(F)F
- half-life [1]: > 3 h
- IC50 [2]: 196 nM
- clearance [3]: 25 mL/min/kg
- inhibition at 1 µM (CYP3A4 [4]): 8.1%
- inhibition [5]: 84%
- bioavailability [6]: 47%
- half-life [7]: 4.3 h
- solubility [8]: 18 µM (≈ 12.2 µg/mL)
- concentration at 1 h [9]: 10.2 µM
- Cmax [10]: 24.5 µg/mL
- inhibition at 10 µM (CYP3A4 [11]): 26%
- AUC [12]: 1.57 µg·h/mL
- Cmax [13]: 0.23 µM
- fraction unbound [14]: 0.058
- Cmax [15]: 3.16 µg/mL
- fraction unbound [16]: 0.095
- solubility [17]: 35 µM (≈ 23.7 µg/mL)
- inhibition [18]: 69%
- AUC [19]: 51 µg·h/mL
- AUC [20]: 274 µg·h/mL
- fraction unbound [21]: 0.077
- Vd [22]: 7.7 L/kg
- concentration at 1 h [23]: 0.49 µM
- half-life [24]: 2.47 h
- Activity [25]: 8.5%
- IC50 (Cytochrome P450 2C19): 6700 nM

SMILES: CC[C@H](NS(=O)(=O)c1ccc(-c2sc(CC(C)(C)C(=O)O)nc2CC2CCC2)c(C(F)F)c1F)C(F)(F)F
- inhibition [26]: 73%
- half-life [1]: > 3 h
- IC50 [2]: 2500 nM
- clearance [3]: 2.9 mL/min/kg
- inhibition at 1 µM (CYP3A4 [4]): -1%
- inhibition [5]: 68%
- inhibition [27]: 61%
- concentration at 2 h [28]: 46.4 µM
- bioavailability [6]: 112%
- concentration at 4 h [29]: 39.7 µM
- half-life [7]: 7.6 h
- concentration at 0.5 h [30]: 61.4 µM
- solubility [8]: < 4 µM
- concentration at 1 h [9]: 52.1 µM
- inhibition at 10 µM (CYP3A4 [11]): 3.4%
- inhibition [31]: 75%
- AUC [32]: 1790 µg·h/mL
- Activity [33]: 21%
- AUC [12]: 32.7 µg·h/mL
- Cmax [13]: 3.8 µM
- inhibition [34]: 46%
- IC50 (Cytochrome P450 2C9): 6300 nM
- fraction unbound [14]: 0.002
- concentration at 24 h [35]: 2.2 µM
- concentration at 7 h [36]: 43.1 µM
- solubility [17]: 355 µM (≈ 208 µg/mL)
- IC50 (Cytochrome P450 2C8): 1800 nM
- Cmax [37]: 303 µg/mL
- AUC [38]: 4710 µg·h/mL
- fraction unbound [21]: 0.003
- Vd [22]: 1.7 L/kg
- half-life [24]: > 3 h
- Cmax [39]: 151 µg/mL
- inhibition [40]: 39%
- Activity [25]: 8.9%
